Data published in patent publication US8263656B2 (Hoffmann-La Roche Inc., priority 2008, dated 2012).

Biological target: T1, human CRTH2 (Homo sapiens, UniProt Q9Y5Y4)
T1 construct: expressed in transfected cells
T1 sequence (Q9Y5Y4 1-395): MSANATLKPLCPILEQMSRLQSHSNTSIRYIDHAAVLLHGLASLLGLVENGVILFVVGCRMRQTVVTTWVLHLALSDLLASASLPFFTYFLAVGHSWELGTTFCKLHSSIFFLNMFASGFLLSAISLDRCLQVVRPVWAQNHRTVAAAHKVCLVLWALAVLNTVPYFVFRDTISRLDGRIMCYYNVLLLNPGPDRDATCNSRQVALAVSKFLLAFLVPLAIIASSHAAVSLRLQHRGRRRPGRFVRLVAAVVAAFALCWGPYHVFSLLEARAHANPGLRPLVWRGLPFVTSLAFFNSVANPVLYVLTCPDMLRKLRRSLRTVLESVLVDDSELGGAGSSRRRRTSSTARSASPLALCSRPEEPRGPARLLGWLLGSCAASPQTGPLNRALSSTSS
Assay: Human CRTH2 Receptor Binding Assay (whole cell, [3H]ramatroban competition)
Details: CHO-K1 cells expressing human CRTH2 and G-alpha16; 20 nM [3H]ramatroban; 1 hour, room temperature
Source text: A whole cell receptor binding assay using [^3H]ramatroban as the competing radioactive ligand was employed to evaluate the compound binding activity to human CRTH2. The radioactive ligand [^3H]ramatroban was synthesized according to Sugimoto et. al. (Eur. J. Pharmacol. 524, 30-37, 2005) to a specific activity of 42 Ci/mmol.
A cell line stably expressing human CRTH2 was established by transfecting CHO-K1 cells with two mammalian expression vectors that harbored human CRTH2 and G-alpha16 cDNAs, respectively, using FuGene® 6 transfection reagent (from Roche). Stable clones expressing CRTH2 were selected by staining each clone with BM16 (BD Pharmingen™ from BD Biosciences, a division of Becton, Dickinson and Company), which is a rat monoclonal antibody to human CRTH2. The cells were maintained as monolayer cultures in Ham's F-12 medium containing 10% fetal bovine serum, 100 units/mL penicillin, […] streptomycin, 2 mM glutamine, 0.5 mg/mL G418 (geneticin) for CRTH2, and 0.2 mg/mL hygromycin-B (for G-alpha 16). For whole cell receptor binding assay, the monolayer cells were rinsed once with PBS (phosphate buffered saline), dissociated using diammonium ethylenediaminetetraacetate (Versene™ EDTA from the Dow Chemical Company), and suspended in PBS containing 10 mM MgCl2 and 0.06% BSA (bovine serum albumin) at 1.5×10^6 cells/mL.
The binding reactions (0.2 mL) were performed in 96-well plates at room temperature in PBS containing 1.5×10^5 cells, 10 mM MgCl2, 0.06% BSA, 20 nM [^3H]ramatroban, and test compound at various concentrations. After 1 hour of binding reactions, the cells were harvested on GF™/B filter microplates (microtiter plates with embedded glass fiber from PerkinElmer, Inc.) and washed 5 times with PBS using a Filtermate™ Harvester (a cell harvester that harvests and washes cells from microplates from PerkinElmer, Inc.). The radioactivities bound to the cells were determined using a microplate scintillation counter (TopCount® NXT, from PerkinElmer, Inc.) after adding 50 μL of Microscint™ 20 scintillation fluid (from PerkinElmer, Inc.) to each well of the filter plates. The radioactivity from non-specific binding was determined by replacing compound with 10 μM of 15(R)-15-methyl PGD2 (from Cayman Chemical Company) in the reaction mixtures. The radioactivity bound to the cells in the absence of compound (total binding) was determined by replacing compound with 0.25% of DMSO (dimethyl sulfoxide) in the reaction mixture. Specific binding data were obtained by subtracting the radioactivity of non-specific binding from each binding data.
The IC50 value is defined as the concentration of the tested compound that is required for 50% inhibition of total specific binding. In order to calculate the IC50 value, the percent inhibition data were determined for 7 concentrations for each compound. The percent inhibition for a compound at each concentration was calculated according to the following formula, [1-(specific binding in the presence of compound)/(total specific binding)]×100. The IC50 value was then obtained by fitting the percent inhibition data to a sigmoidal dose-response (4 parameter logistic) model in the XLfit® software Excel add-in program [from ID Business Solutions Ltd., model 205, where F(x)=(A+(B−A)/(1+((C/x)^D)))].

IC50 [nM] | SMILES
6.2 | CN(C1CCCc2c(OCC(=O)O)cc(Cl)cc21)S(=O)(=O)c1cc(Br)cc(C(F)(F)F)c1 (stereo not shown) [Example 2-13, {5-[(3-Bromo-5-trifluoromethyl-benzenesulfonyl)-methyl-amino]-3-chloro-5,6,7,8-tetrahydro-naphthalen-1-yloxy}-acetic acid]
859 | CN(C1CCCc2c(OCC(=O)O)cc(Cl)cc21)S(=O)(=O)c1cc(Cl)ccc1Cl (stereo not shown) [Example 2-10, {3-Chloro-5-[(2,5-dichloro-benzenesulfonyl)-methyl-amino]-5,6,7,8-tetrahydro-naphthalen-1-yloxy}-acetic acid]
2.6 | O=C(O)COc1c(F)c(Cl)cc2c1CCC[C@H]2NS(=O)(=O)c1cc(Br)cc(C(F)(F)F)c1 [Example 1-39, [(R)-5-(3-Bromo-5-trifluoromethyl-benzenesulfonyl-amino)-3-chloro-2-fluoro-5,6,7,8-tetrahydro-naphthalen-1-yloxy]-acetic acid]
198 | CN(C1CCCc2c(OCC(=O)O)cc(F)cc21)S(=O)(=O)c1cc(F)cc(C(F)(F)F)c1 (stereo not shown) [Example 2-23, {3-Fluoro-5-[(3-fluoro-5-trifluoromethyl-benzenesulfonyl)-methyl-amino]-5,6,7,8-tetrahydro-naphthalen-1-yloxy}-acetic acid]
14.1 | CN(C1CCCc2c1cc(Cl)c(F)c2OCC(=O)O)S(=O)(=O)c1cc(F)cc(C(F)(F)F)c1 (stereo not shown) [Example 2-15, {3-Chloro-2-fluoro-5-[(3-fluoro-5-trifluoromethyl-benzenesulfonyl)-methyl-amino]-5,6,7,8-tetrahydro-naphthalen-1-yloxy}-acetic acid]
3.5 | O=C(O)COc1cc(Cl)cc2c1CCC[C@H]2NS(=O)(=O)c1cc(C(F)(F)F)cc(C(F)(F)F)c1 [Example 1-8]
5.4 | CN(C1CCCc2c(OCC(=O)O)cc(F)cc21)S(=O)(=O)c1cc(Br)cc(C(F)(F)F)c1 (stereo not shown) [Example 2-22, {5-[(3-Bromo-5-trifluoromethyl-benzenesulfonyl)-methyl-amino]-3-fluoro-5,6,7,8-tetrahydro-naphthalen-1-yloxy}-acetic acid]
8.3 | CN(C1CCCc2c(OCC(=O)O)cc(Cl)cc21)S(=O)(=O)c1cc(C(F)(F)F)cc(C(F)(F)F)c1 (stereo not shown) [Example 2-4, {5-[(3,5-Bis-trifluoromethyl-benzenesulfonyl)-methyl-amino]-3-chloro-5,6,7,8-tetrahydro-naphthalen-1-yloxy}-acetic acid]
40.1 | O=C(O)COc1cc(F)cc2c1CCCC2NS(=O)(=O)c1cc(F)cc(C(F)(F)F)c1 (stereo not shown) [Example 1-27, [3-Fluoro-5-(3-fluoro-5-trifluoromethyl-benzenesulfonyl-amino)-5,6,7,8-tetrahydro-naphthalen-1-yloxy]-acetic acid]
638 | Cc1c(Cl)cc2c(c1OCC(=O)O)CCCC2N(C)S(=O)(=O)c1cc(C(F)(F)F)cc(C(F)(F)F)c1 (stereo not shown) [Example 2-8, {5-[(3,5-Bis-trifluoromethyl-benzenesulfonyl)-methyl-amino]-3-chloro-2-methyl-5,6,7,8-tetrahydro-naphthalen-1-yloxy}-acetic acid]
8 | CN(C1CCCc2c1cc(Cl)c(F)c2OCC(=O)O)S(=O)(=O)c1cc(C(F)(F)F)cc(C(F)(F)F)c1 (stereo not shown) [Example 2-1, {5-[(3,5-Bis-trifluoromethyl-benzenesulfonyl)-methyl-amino]-3-chloro-2-fluoro-5,6,7,8-tetrahydro-naphthalen-1-yloxy}-acetic acid]
4.2 | O=C(O)COc1cc(F)cc2c1CCCC2NS(=O)(=O)c1cc(Br)cc(C(F)(F)F)c1 (stereo not shown) [Example 1-28, [5-(3-Bromo-5-trifluoromethyl-benzenesulfonyl-amino)-3-fluoro-5,6,7,8-tetrahydro-naphthalen-1-yloxy]-acetic acid]
2640 | CN(C1CCCc2c(OCC(=O)O)cc(F)cc21)S(=O)(=O)c1cc(Cl)ccc1Cl (stereo not shown) [Example 2-19, {55-[(2,5-Dichloro-benzenesulfonyl)-methyl-amino]-3-fluoro-5,6,7,8-tetrahydro-naphthalen-1-yloxy}-acetic acid]

The remaining lines, values behind:

SMILES | IC50 [nM]
O=C(O)COc1c(F)c(Cl)cc2c1CCCC2NS(=O)(=O)c1ccc(Cl)cc1Cl (stereo not shown) [Example 1-14] | 7.7
O=C(O)COc1c(Cl)ccc2c1CCCC2NS(=O)(=O)c1cc(C(F)(F)F)cc(C(F)(F)F)c1 (stereo not shown) [Example 1-7, [5-(3,5-Bis-trifluoromethyl-benzenesulfonyl-amino)-2-chloro-5,6,7,8-tetrahydro-naphthalen-1-yloxy]-acetic acid] | 292
O=C(O)COc1c(F)c(F)cc2c1CCCC2NS(=O)(=O)c1cc(Cl)ccc1Cl (stereo not shown) [Example 1-32, [5-(2,5-Dichloro-benzenesulfonyl-amino)-2,3-difluoro-5,6,7,8-tetrahydro-naphthalen-1-yloxy]-acetic acid] | 269
CC(C)c1cccc(-c2ccc(S(=O)(=O)NC3CCCc4c3cc(Cl)c(F)c4OCC(=O)O)nc2)c1 (stereo not shown) [Example 1-44, {3-Chloro-2-fluoro-5-[5-(3-isopropyl-phenyl)-pyridine-2-sulfonylamino]-5,6,7,8-tetrahydro-naphthalen-1-yloxy}-acetic acid] | 16.4
O=C(O)COc1c(F)c(Cl)cc2c1CCCC2NS(=O)(=O)c1cc(Cl)ccc1Cl (stereo not shown) [Example 1-10] | 11.4
Cc1c(Cl)cc2c(c1OCC(=O)O)CCCC2NS(=O)(=O)c1cc(C(F)(F)F)cc(C(F)(F)F)c1 (stereo not shown) [Example 1-5, [5-(3,5-Bis-trifluoromethyl-benzenesulfonyl-amino)-3-chloro-2-methyl-5,6,7,8-tetrahydro-naphthalen-1-yloxy]-acetic acid] | 28.4
Cc1ccc2c(c1OCC(=O)O)CCCC2NS(=O)(=O)c1cc(C(F)(F)F)cc(C(F)(F)F)c1 (stereo not shown) [Example 1-3, [5-(3,5-Bis-trifluoromethyl-benzenesulfonyl-amino)-2-methyl-5,6,7,8-tetrahydro-naphthalen-1-yloxy]-acetic acid] | 147
CC(C)c1cccc(-c2ccc(S(=O)(=O)NC3CCCc4c(OCC(=O)O)cc(F)cc43)nc2)c1 (stereo not shown) [Example 1-35, {3-Fluoro-5-[5-(3-isopropyl-phenyl)-pyridine-2-sulfonylamino]-5,6,7,8-tetrahydro-naphthalen-1-yloxy}-acetic acid] | 7
O=C(O)COc1c(F)c(F)cc2c1CCCC2NS(=O)(=O)c1ccc(Cl)cc1Cl (stereo not shown) [Example 1-30, [5-(2,4-Dichloro-benzenesulfonyl-amino)-2,3-difluoro-5,6,7,8-tetrahydro-naphthalen-1-yloxy]-acetic acid] | 46.1
O=C(O)COc1c(F)c(F)cc2c1CCCC2NS(=O)(=O)c1cc(F)cc(C(F)(F)F)c1 (stereo not shown) [Example 1-26, [2,3-Difluoro-5-(3-fluoro-5-trifluoromethyl-benzenesulfonyl-amino)-5,6,7,8-tetrahydro-naphthalen-1-yloxy]-acetic acid] | 42.2
COc1cc(OCC(=O)O)c2c(c1)[C@H](NS(=O)(=O)c1cc(C(F)(F)F)cc(C(F)(F)F)c1)CCC2 [Example 1-23, [(R)-5-(3,5-Bis-trifluoromethyl-benzenesulfonyl-amino)-3-methoxy-5,6,7,8-tetrahydro-naphthalen-1-yloxy]-acetic acid] | 3.6
O=C(O)COc1cc(F)cc2c1CCCC2NS(=O)(=O)c1ccc(Cl)cc1Cl (stereo not shown) [Example 1-31, [5-(2,4-Dichloro-benzenesulfonyl-amino)-3-fluoro-5,6,7,8-tetrahydro-naphthalen-1-yloxy]-acetic acid] | 154
